# Tests used:
# [1] = tested on: Escherichia coli ATCC 25922; settings: E.coli, cited from earlier work
# [2] = tested on: Staphylococcus aureus (ATCC 29213); assay: Antibiotic susceptibility by glucose consumption in culture medium, blood culture bottle inoculum (Example 1); assay type: cell-based; settings: for Glucose concentration t=0: 0 minutes; for Glucose concentration t=60: 60 minutes; for Glucose concentration t=120: 120 minutes; for Glucose concentration t=180: 180 minutes; for Glucose concentration t=240: 240 minutes; for dC/dT: rate of change in glucose concentration;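 for dC/dT: rate calculated between the 60 and 180 min readings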
# Method in brief: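 Bacteria grown in blood culture bottles until positive, diluted 1:100 into cation-adjusted Mueller-Hinton broth with glucose at 1.0 mg/mL plus antibiotic (µg/mL). Glucose read by glucometer at 0–240 min.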
# [3] = tested on: Staphylococcus aureus ATCC 29213; settings: S.aureus, cited from earlier work; for MIC EUCAST, range in parentheses: range obtained by EUCAST from ISO 20776-1: 2006; for MIC EUCAST: reference MIC value, EUCAST QC tables Version 7.0, 2017
# [4] = tested on: Enterococcus faecalis ATCC 29212; settings: E.faecalis, cited from earlier work
# [5] = range obtained by EUCAST from ISO 20776-1: 2006
# [6] = reference MIC value, EUCAST QC tables Version 7.0, 2017
smiles,measurement,setting,value
CO[C@@]1(NC(=O)Cc2cccs2)C(=O)N2C(C(=O)O)=C(COC(N)=O)CS[C@@H]21 [Cefoxitin],"MIC EUCAST, range in parentheses",[1]; [5],2 to 8 µg/mL
same,MIC EUCAST,[1]; [6],4 µg/mL
same,MIC,"[2]; Staphylococcus aureus, ATCC29213, S.aureus, 80% threshold of rate of change vs reference, between 60 and 180 minutes, obtained in 4 hours, read-out: MIC Measured",2 µg/mL
same,F=the rate of change in glucose concentration in relation to the reference,"[2]; [Ab] 0,5 µg/mL",96%
same,Glucose concentration t=0,"[2]; [Ab] 0,5 µg/mL",144
same,Glucose concentration t=60,"[2]; [Ab] 0,5 µg/mL",155
same,Glucose concentration t=120,"[2]; [Ab] 0,5 µg/mL",130
same,Glucose concentration t=180,"[2]; [Ab] 0,5 µg/mL",91
same,Glucose concentration t=240,"[2]; [Ab] 0,5 µg/mL",32
same,dC/dT,"[2]; [Ab] 0,5 µg/mL",32
same,F=the rate of change in glucose concentration in relation to the reference,"[2]; [Ab] 0,25 µg/mL",91%
same,Glucose concentration t=0,"[2]; [Ab] 0,25 µg/mL",143
same,Glucose concentration t=60,"[2]; [Ab] 0,25 µg/mL",152
same,Glucose concentration t=120,"[2]; [Ab] 0,25 µg/mL",132
same,Glucose concentration t=180,"[2]; [Ab] 0,25 µg/mL",91
same,Glucose concentration t=240,"[2]; [Ab] 0,25 µg/mL",33
same,dC/dT,"[2]; [Ab] 0,25 µg/mL",31
same,F=the rate of change in glucose concentration in relation to the reference,[2]; [Ab] 1 µg/mL,82%
same,Glucose concentration t=0,[2]; [Ab] 1 µg/mL,147
same,Glucose concentration t=60,[2]; [Ab] 1 µg/mL,155
same,Glucose concentration t=120,[2]; [Ab] 1 µg/mL,133
same,Glucose concentration t=180,[2]; [Ab] 1 µg/mL,100
same,Glucose concentration t=240,[2]; [Ab] 1 µg/mL,40
same,dC/dT,[2]; [Ab] 1 µg/mL,28
same,F=the rate of change in glucose concentration in relation to the reference,[2]; [Ab] 2 µg/mL,72%
same,Glucose concentration t=0,[2]; [Ab] 2 µg/mL,141
same,Glucose concentration t=60,[2]; [Ab] 2 µg/mL,146
same,Glucose concentration t=120,[2]; [Ab] 2 µg/mL,143
same,Glucose concentration t=180,[2]; [Ab] 2 µg/mL,98
same,Glucose concentration t=240,[2]; [Ab] 2 µg/mL,61
same,dC/dT,[2]; [Ab] 2 µg/mL,24
same,F=the rate of change in glucose concentration in relation to the reference,[2]; [Ab] 4 µg/mL,16%
same,Glucose concentration t=0,[2]; [Ab] 4 µg/mL,142
same,Glucose concentration t=60,[2]; [Ab] 4 µg/mL,150
same,Glucose concentration t=120,[2]; [Ab] 4 µg/mL,143
same,Glucose concentration t=180,[2]; [Ab] 4 µg/mL,139
same,Glucose concentration t=240,[2]; [Ab] 4 µg/mL,139
same,dC/dT,[2]; [Ab] 4 µg/mL,6
same,F=the rate of change in glucose concentration in relation to the reference,[2]; [Ab] 8 µg/mL,24%
same,Glucose concentration t=0,[2]; [Ab] 8 µg/mL,136
same,Glucose concentration t=60,[2]; [Ab] 8 µg/mL,157
same,Glucose concentration t=120,[2]; [Ab] 8 µg/mL,160
same,Glucose concentration t=180,[2]; [Ab] 8 µg/mL,141
same,Glucose concentration t=240,[2]; [Ab] 8 µg/mL,149
same,dC/dT,[2]; [Ab] 8 µg/mL,8
same,F=the rate of change in glucose concentration in relation to the reference,[2]; [Ab] 16 µg/mL,22%
same,Glucose concentration t=0,[2]; [Ab] 16 µg/mL,140
same,Glucose concentration t=60,[2]; [Ab] 16 µg/mL,157
same,Glucose concentration t=120,[2]; [Ab] 16 µg/mL,152
same,Glucose concentration t=180,[2]; [Ab] 16 µg/mL,142
same,Glucose concentration t=240,[2]; [Ab] 16 µg/mL,142
same,dC/dT,[2]; [Ab] 16 µg/mL,8
same,F=the rate of change in glucose concentration in relation to the reference,[2]; [Ab] 32 µg/mL,27%
same,Glucose concentration t=0,[2]; [Ab] 32 µg/mL,145
same,Glucose concentration t=60,[2]; [Ab] 32 µg/mL,154
same,Glucose concentration t=120,[2]; [Ab] 32 µg/mL,145
same,Glucose concentration t=180,[2]; [Ab] 32 µg/mL,136
same,Glucose concentration t=240,[2]; [Ab] 32 µg/mL,139
same,dC/dT,[2]; [Ab] 32 µg/mL,9
same,"MIC EUCAST, range in parentheses",[3],1 to 4 µg/mL
same,MIC EUCAST,[3],2 µg/mL
CN[C@H](CC(C)C)C(=O)N[C@H]1C(=O)N[C@@H](CC(N)=O)C(=O)N[C@H]2C(=O)N[C@H]3C(=O)N[C@H](C(=O)N[C@H](C(=O)O)c4cc(O)cc(O)c4-c4cc3ccc4O)[C@H](O)c3ccc(c(Cl)c3)Oc3cc2cc(c3O[C@@H]2O[C@H](CO)[C@@H](O)[C@H](O)[C@H]2O[C@H]2C[C@](C)(N)[C@H](O)[C@H](C)O2)Oc2ccc(cc2Cl)[C@H]1O [Vancomycin],F=the rate of change in glucose concentration in relation to the reference,"[2]; [Ab] 0,5 µg/mL",84%
same,Glucose concentration t=60,"[2]; [Ab] 0,5 µg/mL",156
same,Glucose concentration t=120,"[2]; [Ab] 0,5 µg/mL",142
same,Glucose concentration t=180,"[2]; [Ab] 0,5 µg/mL",100
same,Glucose concentration t=240,"[2]; [Ab] 0,5 µg/mL",51
same,dC/dT,"[2]; [Ab] 0,5 µg/mL",28
same,F=the rate of change in glucose concentration in relation to the reference,"[2]; [Ab] 0,25 µg/mL",75%
same,Glucose concentration t=60,"[2]; [Ab] 0,25 µg/mL",142
same,Glucose concentration t=120,"[2]; [Ab] 0,25 µg/mL",133
same,Glucose concentration t=180,"[2]; [Ab] 0,25 µg/mL",92
same,Glucose concentration t=240,"[2]; [Ab] 0,25 µg/mL",42
same,dC/dT,"[2]; [Ab] 0,25 µg/mL",25
same,F=the rate of change in glucose concentration in relation to the reference,[2]; [Ab] 1 µg/mL,96%
same,Glucose concentration t=60,[2]; [Ab] 1 µg/mL,161
same,Glucose concentration t=120,[2]; [Ab] 1 µg/mL,140
same,Glucose concentration t=180,[2]; [Ab] 1 µg/mL,97
same,Glucose concentration t=240,[2]; [Ab] 1 µg/mL,51
same,dC/dT,[2]; [Ab] 1 µg/mL,32
same,F=the rate of change in glucose concentration in relation to the reference,[2]; [Ab] 2 µg/mL,88%
same,Glucose concentration t=60,[2]; [Ab] 2 µg/mL,160
same,Glucose concentration t=120,[2]; [Ab] 2 µg/mL,143
same,Glucose concentration t=180,[2]; [Ab] 2 µg/mL,101
same,Glucose concentration t=240,[2]; [Ab] 2 µg/mL,53
same,dC/dT,[2]; [Ab] 2 µg/mL,30
same,F=the rate of change in glucose concentration in relation to the reference,[2]; [Ab] 4 µg/mL,39%
same,Glucose concentration t=60,[2]; [Ab] 4 µg/mL,157
same,Glucose concentration t=120,[2]; [Ab] 4 µg/mL,147
same,Glucose concentration t=180,[2]; [Ab] 4 µg/mL,131
same,Glucose concentration t=240,[2]; [Ab] 4 µg/mL,107
same,dC/dT,[2]; [Ab] 4 µg/mL,13
same,F=the rate of change in glucose concentration in relation to the reference,[2]; [Ab] 8 µg/mL,6%
same,Glucose concentration t=60,[2]; [Ab] 8 µg/mL,150
same,Glucose concentration t=120,[2]; [Ab] 8 µg/mL,150
same,Glucose concentration t=180,[2]; [Ab] 8 µg/mL,146
same,Glucose concentration t=240,[2]; [Ab] 8 µg/mL,149
same,dC/dT,[2]; [Ab] 8 µg/mL,2
same,F=the rate of change in glucose concentration in relation to the reference,[2]; [Ab] 16 µg/mL,7%
same,Glucose concentration t=60,[2]; [Ab] 16 µg/mL,157
same,Glucose concentration t=120,[2]; [Ab] 16 µg/mL,153
same,Glucose concentration t=180,[2]; [Ab] 16 µg/mL,152
same,Glucose concentration t=240,[2]; [Ab] 16 µg/mL,149
same,dC/dT,[2]; [Ab] 16 µg/mL,3
same,F=the rate of change in glucose concentration in relation to the reference,[2]; [Ab] 32 µg/mL,13%
same,Glucose concentration t=60,[2]; [Ab] 32 µg/mL,157
same,Glucose concentration t=120,[2]; [Ab] 32 µg/mL,140
same,Glucose concentration t=180,[2]; [Ab] 32 µg/mL,148
same,Glucose concentration t=240,[2]; [Ab] 32 µg/mL,146
same,dC/dT,[2]; [Ab] 32 µg/mL,5
same,"MIC EUCAST, range in parentheses",[4]; [5],1 to 4 µg/mL
same,MIC EUCAST,[4]; [6],2 µg/mL
same,"MIC EUCAST, range in parentheses",[3],0.5 to 2 µg/mL
same,MIC EUCAST,[3],1 µg/mL
